PubChem BioAssay (NCI)
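Dose response: 5 concentrations. Exposure: 48 h. Format: 96-well plates. Endpoint: linear interpolation; highest concentration if not reached. The concentration for 50% growth inhibition is given as GI50. The concentration for full growth arrest is given as TGI.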

Key:
Assay in all cases: DTP human tumour cell line panel, 48 h
786-0 renal = tested on: 786-0 renal
A498 renal = tested on: A498 renal
A549 NSCLC = tested on: A549 NSCLC
ACHN renal = tested on: ACHN renal
BT-549 breast = tested on: BT-549 breast
COLO 205 colon = tested on: COLO 205 colon
DU-145 prostate = tested on: DU-145 prostate
EKVX NSCLC = tested on: EKVX NSCLC
HCC-2998 colon = tested on: HCC-2998 colon
HCT-116 colon = tested on: HCT-116 colon
HCT-15 colon = tested on: HCT-15 colon
HL-60(TB) leukemia = tested on: HL-60(TB) leukemia
HOP-62 NSCLC = tested on: HOP-62 NSCLC
HT29 colon = tested on: HT29 colon
IGROV1 ovarian = tested on: IGROV1 ovarian
K-562 leukemia = tested on: K-562 leukemia
KM12 colon = tested on: KM12 colon
LOX IMVI melanoma = tested on: LOX IMVI melanoma
M14 melanoma = tested on: M14 melanoma
MALME-3M melanoma = tested on: MALME-3M melanoma
MCF7 breast = tested on: MCF7 breast
MDA-MB-231 breast = tested on: MDA-MB-231 breast
MDA-MB-435 = tested on: MDA-MB-435
MOLT-4 leukemia = tested on: MOLT-4 leukemia
NCI-H226 lung = tested on: NCI-H226 lung
NCI-H23 lung = tested on: NCI-H23 lung
NCI-H460 lung = tested on: NCI-H460 lung
NCI-H522 lung = tested on: NCI-H522 lung
NCI/ADR-RES ovarian = tested on: NCI/ADR-RES ovarian
OVCAR-3 ovarian = tested on: OVCAR-3 ovarian
OVCAR-4 ovarian = tested on: OVCAR-4 ovarian
OVCAR-5 ovarian = tested on: OVCAR-5 ovarian
OVCAR-8 ovarian = tested on: OVCAR-8 ovarian
PC-3 prostate = tested on: PC-3 prostate
RXF 393 renal = tested on: RXF 393 renal
SF-268 CNS = tested on: SF-268 CNS
SF-295 CNS = tested on: SF-295 CNS
SF-539 CNS = tested on: SF-539 CNS
SK-MEL-2 melanoma = tested on: SK-MEL-2 melanoma
SK-MEL-28 melanoma = tested on: SK-MEL-28 melanoma
SK-MEL-5 melanoma = tested on: SK-MEL-5 melanoma
SK-OV-3 ovarian = tested on: SK-OV-3 ovarian
SN12C renal = tested on: SN12C renal
SNB-19 CNS = tested on: SNB-19 CNS
SNB-75 CNS = tested on: SNB-75 CNS
SR leukemia = tested on: SR leukemia
SW-620 colon = tested on: SW-620 colon
T-47D breast = tested on: T-47D breast
TK-10 renal = tested on: TK-10 renal
U251 CNS = tested on: U251 CNS
UACC-257 melanoma = tested on: UACC-257 melanoma
UACC-62 melanoma = tested on: UACC-62 melanoma
UO-31 renal = tested on: UO-31 renal

SMILES: COCC(=O)Oc1cc(-c2ccc(C)cc2C)c(OC(=O)COC)c(-c2ccc(C)cc2C)c1
- GI50 (786-0 renal): 10.7 µM
- TGI (786-0 renal): 48.3 µM
- GI50 (A498 renal): 5.57 µM
- TGI (A498 renal): 19.9 µM
- GI50 (A549 NSCLC): 4.73 µM
- TGI (A549 NSCLC): 29.1 µM
- GI50 (ACHN renal): 9.07 µM
- TGI (ACHN renal): > 100 µM
- GI50 (BT-549 breast): 7.7 µM
- TGI (BT-549 breast): 22.9 µM
- GI50 (COLO 205 colon): 8.76 µM
- TGI (COLO 205 colon): 23.8 µM
- GI50 (DU-145 prostate): 10.3 µM
- TGI (DU-145 prostate): 30.2 µM
- GI50 (EKVX NSCLC): 4.36 µM
- TGI (EKVX NSCLC): 58.9 µM
- GI50 (HCC-2998 colon): 13.5 µM
- TGI (HCC-2998 colon): 28.9 µM
- GI50 (HCT-116 colon): 0.797 µM
- TGI (HCT-116 colon): 14.4 µM
- GI50 (HCT-15 colon): 0.58 µM
- TGI (HCT-15 colon): > 100 µM
- GI50 (HL-60(TB) leukemia): 2.21 µM
- TGI (HL-60(TB) leukemia): 77.4 µM
- GI50 (HOP-62 NSCLC): 11.7 µM
- TGI (HOP-62 NSCLC): 28.1 µM
- GI50 (HT29 colon): 4.02 µM
- TGI (HT29 colon): 21.8 µM
- GI50 (IGROV1 ovarian): 5.56 µM
- TGI (IGROV1 ovarian): 25.3 µM
- GI50 (K-562 leukemia): 3.56 µM
- TGI (K-562 leukemia): > 100 µM
- GI50 (KM12 colon): 4.45 µM
- TGI (KM12 colon): 19.5 µM
- GI50 (LOX IMVI melanoma): 1.12 µM
- TGI (LOX IMVI melanoma): 15.5 µM
- GI50 (M14 melanoma): 7.69 µM
- TGI (M14 melanoma): 21.6 µM
- GI50 (MALME-3M melanoma): 9.2 µM
- TGI (MALME-3M melanoma): 25.5 µM
- GI50 (MCF7 breast): 4.75 µM
- TGI (MCF7 breast): 51.4 µM
- GI50 (MDA-MB-231 breast): 6.03 µM
- TGI (MDA-MB-231 breast): 26.5 µM
- GI50 (MDA-MB-435): 6.62 µM
- TGI (MDA-MB-435): 30.2 µM
- GI50 (MOLT-4 leukemia): 2.96 µM
- TGI (MOLT-4 leukemia): > 100 µM
- GI50 (NCI-H226 lung): 8.59 µM
- TGI (NCI-H226 lung): 46.9 µM
- GI50 (NCI-H23 lung): 5.61 µM
- TGI (NCI-H23 lung): 23.4 µM
- GI50 (NCI-H460 lung): 0.592 µM
- TGI (NCI-H460 lung): 13.7 µM
- GI50 (NCI-H522 lung): 4.07 µM
- TGI (NCI-H522 lung): 18.3 µM
- GI50 (NCI/ADR-RES ovarian): 5.84 µM
- TGI (NCI/ADR-RES ovarian): 55.3 µM
- GI50 (OVCAR-3 ovarian): 3.64 µM
- TGI (OVCAR-3 ovarian): 16.5 µM
- GI50 (OVCAR-4 ovarian): 3.33 µM
- TGI (OVCAR-4 ovarian): 23.6 µM
- GI50 (OVCAR-5 ovarian): 21.7 µM
- TGI (OVCAR-5 ovarian): 61 µM
- GI50 (OVCAR-8 ovarian): 4.51 µM
- TGI (OVCAR-8 ovarian): 90.3 µM
- GI50 (PC-3 prostate): 0.824 µM
- TGI (PC-3 prostate): 35.1 µM
- GI50 (RXF 393 renal): 11.2 µM
- TGI (RXF 393 renal): 46.1 µM
- GI50 (SF-268 CNS): 3.91 µM
- TGI (SF-268 CNS): 23.9 µM
- GI50 (SF-295 CNS): 5.58 µM
- TGI (SF-295 CNS): 29.6 µM
- GI50 (SF-539 CNS): 12 µM
- TGI (SF-539 CNS): 28.8 µM
- GI50 (SK-MEL-2 melanoma): 14.7 µM
- TGI (SK-MEL-2 melanoma): 33.9 µM
- GI50 (SK-MEL-28 melanoma): 11.2 µM
- TGI (SK-MEL-28 melanoma): 23.6 µM
- GI50 (SK-MEL-5 melanoma): 2.04 µM
- TGI (SK-MEL-5 melanoma): 15.7 µM
- GI50 (SK-OV-3 ovarian): 13.2 µM
- TGI (SK-OV-3 ovarian): 61.5 µM
- GI50 (SN12C renal): 9.11 µM
- TGI (SN12C renal): 28.7 µM
- GI50 (SNB-19 CNS): 11.9 µM
- TGI (SNB-19 CNS): 43.6 µM
- GI50 (SNB-75 CNS): 3.22 µM
- TGI (SNB-75 CNS): 20.4 µM
- GI50 (SR leukemia): 1.59 µM
- TGI (SR leukemia): > 100 µM
- GI50 (SW-620 colon): 5.09 µM
- TGI (SW-620 colon): 18.3 µM
- GI50 (T-47D breast): 4.52 µM
- TGI (T-47D breast): 54.9 µM
- GI50 (TK-10 renal): 20.4 µM
- TGI (TK-10 renal): > 100 µM
- GI50 (U251 CNS): 2.02 µM
- TGI (U251 CNS): 23 µM
- GI50 (UACC-257 melanoma): 8.23 µM
- TGI (UACC-257 melanoma): 35.9 µM
- GI50 (UACC-62 melanoma): 3.43 µM
- TGI (UACC-62 melanoma): 31.9 µM
- GI50 (UO-31 renal): 2.47 µM
- TGI (UO-31 renal): 15.5 µM
